According to PMC9731865, “Gambogic acid and juglone inhibit RNase P through distinct mechanisms” (The Journal of Biological Chemistry, 2022):

Tests used:
Format in all cases: biochemical
human MRPP1/2/3 = target: T1, human MRPP1/2/3 (Homo sapiens, UniProt O15091); assay: Human mitochondrial RNase P (MRPP1/2/3) activity assay; details: 30 min preincubation; 50 nM MRPP3, 500 nM MRPP1/2, 500 nM pre-tRNA, 37 °C; apparent IC50 for juglone
T1 construct: N-terminal truncation (residues 46–583, Δ45MRPP3); His6 (N, cleaved yes); made in house; host or cells: Rosetta (DE3) / Rosetta2 (DE3) E. coli
T1 sequence (O15091 46-583): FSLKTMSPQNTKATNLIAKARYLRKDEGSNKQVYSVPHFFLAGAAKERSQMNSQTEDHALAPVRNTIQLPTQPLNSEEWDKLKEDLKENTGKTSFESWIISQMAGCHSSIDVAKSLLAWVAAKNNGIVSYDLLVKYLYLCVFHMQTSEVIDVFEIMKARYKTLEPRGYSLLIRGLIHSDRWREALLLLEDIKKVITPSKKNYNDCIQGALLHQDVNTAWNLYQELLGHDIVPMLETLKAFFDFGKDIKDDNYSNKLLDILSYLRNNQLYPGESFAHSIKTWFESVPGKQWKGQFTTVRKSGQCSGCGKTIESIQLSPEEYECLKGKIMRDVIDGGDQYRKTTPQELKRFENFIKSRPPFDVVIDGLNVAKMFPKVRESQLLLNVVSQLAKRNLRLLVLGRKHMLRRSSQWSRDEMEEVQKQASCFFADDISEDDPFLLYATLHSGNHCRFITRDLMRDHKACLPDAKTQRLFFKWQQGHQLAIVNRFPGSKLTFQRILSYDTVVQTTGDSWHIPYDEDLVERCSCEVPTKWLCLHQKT
Description: Figure 4 Gambogic acid and juglone inhibit A. thaliana PRORP1 (green), human MRPP1/2/3 (red), and B. subtilis RNase P (blue). Compounds gambogic acid (A) and juglone (B) were incubated with enzyme at double the reaction concentration for 30 min prior to the addition of an equal volume of substrate to initiate the reaction. PRORP1 reactions (shown in green) were performed with 0.3 nM PRORP1 and 800 nM pre-tRNA containing 40 nM Fl-pre-tRNA at 25 °C in 30 mM MOPS pH 7.8, 5 mM MgCl2, 100 mM NaCl, 1 mM TCEP, 500 nM (12 μg/ml) yeast tRNA, 5 mM spermidine, 6.65 μg/ml BSA, and 0.01% NP-40. MRPP1/2/3 reactions (shown in red) were performed using 50 nM MRPP3, 500 nM MRPP1/2, 500 nM pre-tRNA containing 40 nM Fl-pre-tRNA at 37 °C in 50 mM MOPS (pH 7.8), 1 mM TCEP, 4.5 mM MgCl2, and 100 mM NaCl. […]
The inhibition of human MRPP1/2/3 by gambogic acid and juglone was evaluated via dose–response using a quenched assay. Human MRPP1/2/3 activity was measured as a function of gambogic acid and juglone concentration using 50 nM MRPP3, 500 nM MRPP1/2, 500 nM pre-tRNA containing 40 nM Fl-pre-tRNA in 50 mM MOPS (pH 7.8), 4.5 mM MgCl2, 100 mM NaCl, and 1 mM TCEP (pH 7.5). […] Samples were separated by 20% Urea PAGE (Ultra Pure SequaGel), fluorescence signal was quantified using ImageJ, and the data were analyzed using Prism. […]

B. subtilis RNase P = target: T2, B. subtilis RNase P (Bacillus subtilis, UniProt P25814); assay: B. subtilis RNase P activity assay (FP, real-time)
T2 construct: made in house
Description: Figure 4 Gambogic acid and juglone inhibit A. thaliana PRORP1 (green), human MRPP1/2/3 (red), and B. subtilis RNase P (blue). Compounds gambogic acid (A) and juglone (B) were incubated with enzyme at double the reaction concentration for 30 min prior to the addition of an equal volume of substrate to initiate the reaction. PRORP1 reactions (shown in green) were performed with 0.3 nM PRORP1 and 800 nM pre-tRNA containing 40 nM Fl-pre-tRNA at 25 °C in 30 mM MOPS pH 7.8, 5 mM MgCl2, 100 mM NaCl, 1 mM TCEP, 500 nM (12 μg/ml) yeast tRNA, 5 mM spermidine, 6.65 μg/ml BSA, and 0.01% NP-40. MRPP1/2/3 reactions (shown in red) were performed using 50 nM MRPP3, 500 nM MRPP1/2, 500 nM pre-tRNA containing 40 nM Fl-pre-tRNA at 37 °C in 50 mM MOPS (pH 7.8), 1 mM TCEP, 4.5 mM MgCl2, and 100 mM NaCl. B. subtilis RNase P reactions (shown in blue) were performed using 20 nM RNase P and 500 nM pre-tRNA containing 40 nM Fl-pre-tRNA at 37 °C in 50 mM Tris, pH 7.2, 5 mM MgCl2, 100 mM KCl, 500 nM (12 μg/ml) yeast tRNA, 20 mM dithiothreitol (DTT), 10 mM spermidine, and 0.01% NP-40. Equation 1 was fit to each dataset.
The inhibition of B. subtilis RNase P activity by gambogic acid and juglone was measured using a previously developed FP assay in real-time.^25 Reactions were performed under multiple turnover conditions using 20 nM RNase P and 500 nM Fl-pre-tRNA^Asp in 50 mM Tris (pH 7.2), 5 mM MgCl2, 100 mM KCl, 500 nM (12 μg/ml) yeast tRNA^mix, 20 mM dithiothreitol, 10 mM spermidine, and 0.01% NP-40 at 37 °C.

T. maritima RNase P = T. maritima RNase P inhibition (literature); details: own PRORP IC50 against the cited T. maritima IC50 of 12.8 μM (ref 28)

T2 sequence (P25814 whole entry): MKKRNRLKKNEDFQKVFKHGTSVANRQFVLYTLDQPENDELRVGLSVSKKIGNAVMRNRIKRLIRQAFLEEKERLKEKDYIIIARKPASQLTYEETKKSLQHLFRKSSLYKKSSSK

| SMILES | IC50 (human MRPP1/2/3) [µM] | IC50 (B. subtilis RNase P) [µM] | times more potent against PRORP than T. maritima RNase P (T. maritima RNase P) |
| --- | --- | --- | --- |
| CC(C)=CCC[C@]1(C)C=Cc2c(O)c3c(c(CC=C(C)C)c2O1)O[C@]12C(=C[C@@H]4C[C@H]1C(C)(C)O[C@@]2(C/C=C(/C)C(=O)O)C4=O)C3=O [gambogic acid] | 0.26 ± 0.06 | 50 ± 2 | – |
| O=C1C=CC(=O)c2c(O)cccc21 [juglone, 5-hydroxy-1,4-naphthalenedione] | 1.8 ± 0.04 | > 500 | about 10 times |
